Source: PMC10141580, “Cyclic Dichalcogenides Extend the Reach of Bioreductive Prodrugs to Harness Thiol/Disulfide Oxidoreductases: Applications to seco-Duocarmycins Targeting the Thioredoxin System” (ACS Central Science, 2023)
Like-named read-outs stand apart in the source and are kept apart here.

Columns and labels:
HeLa-HRE cells = assay: Resazurin cytotoxicity assay, HeLa-HRE, 48 h; conditions: for IC50(HeLa)/IC50(A549): ratio HeLa vs A549
Protocol: (§1) We used A549 lung cancer and HeLa cervical cancer cell lines for initial screening of the prodrugs.
HeLa-HRE cells were treated with prodrugs of the
Dose -response curves were calculated from at least 27 incremental single concentrations over a
range of at least three log units.

A549 cells = assay: Resazurin cytotoxicity assay, A549, 72 h; conditions: read-out: IC50(nM): A549
Protocol: as §1
Fi gure S9: Cell ular resazurin-based cytotoxi ci ty as s a y.
Dose -response curves were calculated from at least 27 incremental single concentrations over a range
of at least three log units. Individual experiments with annotated experiment numbers are shown for each prodrug

[1] = test system: NCI-60 standardized human tumor cell line panel; assay: cells; assay type: cell-based; conditions: read-out: GI50
mouse = assay: Tolerability for repeated dose administration in vivo (summary); conditions: weekly or twice-weekly administration
[2] = read-out: IC50(nM): HeLa, HeLa, 48 h

SMILES: COC(=O)Oc1cc2c(c3ccccc13)[C@H](CCl)CN2C(=O)c1cc2cc(OC)c(OC)c(OC)c2[nH]1 [MC-CBI-TMI]
- IC50(HeLa)/IC50(A549) (HeLa-HRE cells): 1.5
- IC50 (HeLa-HRE cells; [2]): 4.3 nM
- IC50 (A549 cells): 2.9 nM

SMILES: COc1cc2cc(C(=O)N3C[C@@H](CCl)c4c3cc(OC(=O)N(C)CCSSCCN3CCOCC3)c3ccccc43)[nH]c2c(OC)c1OC [SS00M-CBI-TMI]
- IC50(HeLa)/IC50(A549) (HeLa-HRE cells): 3.6
- IC50 (HeLa-HRE cells; [2]): 125 nM
- GI50 ([1]; 786-0): 16 nM
- GI50 ([1]; A498): 270 nM
- GI50 ([1]; A549/ATCC): 31 nM
- GI50 ([1]; ACHN): 19 nM
- GI50 ([1]; BT-549): 15 nM
- GI50 ([1]; CAKI-1): 41 nM
- GI50 ([1]; CCRF-CEM): 100 nM
- GI50 ([1]; COLO 205): 450 nM
- GI50 ([1]; EKVX): 82 nM
- GI50 ([1]; HCC-2998): 78 nM
- GI50 ([1]; HCT-15): 190 nM
- GI50 ([1]; HCT-116): 610 nM
- GI50 ([1]; HL-60(TB)): 78 nM
- GI50 ([1]; HOP-62): 11 nM
- GI50 ([1]; HOP-92): 750 nM
- GI50 ([1]; HT29): 320 nM
- GI50 ([1]; IGROV1): 23 nM
- GI50 ([1]; K-562): 330 nM
- GI50 ([1]; KM12): 150 nM
- GI50 ([1]; LOX IMVI): 42 nM
- GI50 ([1]; M14): 31 nM
- GI50 ([1]; MALME-3M): 110 nM
- GI50 ([1]; MDA-MB-435): 51 nM
- GI50 ([1]; MDA-MB-468): 12 nM
- GI50 ([1]; MOLT-4): 17 nM
- GI50 ([1]; NCI-H23): 9.6 nM
- GI50 ([1]; NCI-H226): 29 nM
- GI50 ([1]; NCI-H460): 9.5 nM
- GI50 ([1]; NCI-H522): 400 nM
- GI50 ([1]; OVCAR-3): 690 nM
- GI50 ([1]; OVCAR-4): 560 nM
- GI50 ([1]; OVCAR-5): 82 nM
- GI50 ([1]; OVCAR-8): 43 nM
- GI50 ([1]; PC-3): 25 nM
- GI50 ([1]; RPMI-8226): 850 nM
- GI50 ([1]; RXF 393): 6.6 nM
- GI50 ([1]; SF-268): 21 nM
- GI50 ([1]; SF-295): 7.4 nM
- GI50 ([1]; SF-539): 8.3 nM
- GI50 ([1]; SK-MEL-5): 35 nM
- GI50 ([1]; SK-MEL-28): 41 nM
- GI50 ([1]; SK-OV-3): 16 nM
- GI50 ([1]; SN12C): 34 nM
- GI50 ([1]; SNB-19): 28 nM
- GI50 ([1]; SR): 6.9 nM
- GI50 ([1]; SW-620): 570 nM
- GI50 ([1]; T-47D): 50 nM
- GI50 ([1]; TK-10): 820 nM
- GI50 ([1]; U251): 18 nM
- GI50 ([1]; UACC-62): 52 nM
- GI50 ([1]; UACC-257): 500 nM
- IC50 (A549 cells): 35 nM

SMILES: COC(=O)Oc1cc2c(c3ccccc13)[C@H](CCl)CN2C(=O)c1cc2cc(OCCCN3CCC3)ccc2[nH]1 [MC-CBI-AZI]
- IC50(HeLa)/IC50(A549) (HeLa-HRE cells): 0.5
- IC50 (HeLa-HRE cells; [2]): 0.8 nM
- IC50 (A549 cells): 1.6 nM

SMILES: CN(CCSSCCN1CCOCC1)C(=O)Oc1cc2c(c3ccccc13)[C@H](CCl)CN2C(=O)c1cc2cc(OCCCN3CCC3)ccc2[nH]1 [SS00M-CBI-AZI]
- IC50(HeLa)/IC50(A549) (HeLa-HRE cells): 1.7
- IC50 (HeLa-HRE cells; [2]): 6.9 nM
- GI50 ([1]; 786-0, AZI sheet): 32 nM
- GI50 ([1]; A498, AZI sheet): 9.1 nM
- GI50 ([1]; A549/ATCC, AZI sheet): 4.5 nM
- GI50 ([1]; ACHN, AZI sheet): 28 nM
- GI50 ([1]; BT-549, AZI sheet): 84 nM
- GI50 ([1]; CAKI-1, AZI sheet): 37 nM
- GI50 ([1]; CCRF-CEM, AZI sheet): 100 nM
- GI50 ([1]; COLO 205, AZI sheet): 320 nM
- GI50 ([1]; DU-145, AZI sheet): 12 nM
- GI50 ([1]; EKVX, AZI sheet): 42 nM
- GI50 ([1]; HCC-2998, AZI sheet): 27 nM
- GI50 ([1]; HCT-15, AZI sheet): 57 nM
- GI50 ([1]; HCT-116, AZI sheet): 45 nM
- GI50 ([1]; HL-60(TB), AZI sheet): 130 nM
- GI50 ([1]; HOP-62, AZI sheet): 2.5 nM
- GI50 ([1]; HOP-92, AZI sheet): 380 nM
- GI50 ([1]; HT29, AZI sheet): 70 nM
- GI50 ([1]; IGROV1, AZI sheet): 45 nM
- GI50 ([1]; K-562, AZI sheet): 75 nM
- GI50 ([1]; KM12, AZI sheet): 31 nM
- GI50 ([1]; LOX IMVI, AZI sheet): 8.7 nM
- GI50 ([1]; M14, AZI sheet): 10 nM
- GI50 ([1]; MALME-3M, AZI sheet): 48 nM
- GI50 ([1]; MCF7, AZI sheet): 7.5 nM
- GI50 ([1]; MDA-MB-231, AZI sheet): 71.1 nM
- GI50 ([1]; MDA-MB-435, AZI sheet): 37 nM
- GI50 ([1]; MDA-MB-468, AZI sheet): 40 nM
- GI50 ([1]; MOLT-4, AZI sheet): 50 nM
- GI50 ([1]; NCI-H23, AZI sheet): 10 nM
- GI50 ([1]; NCI-H226, AZI sheet): 9.5 nM
- GI50 ([1]; NCI-H522, AZI sheet): 270 nM
- GI50 ([1]; OVCAR-3, AZI sheet): 240 nM
- GI50 ([1]; OVCAR-4, AZI sheet): 620 nM
- GI50 ([1]; OVCAR-5, AZI sheet): 68 nM
- GI50 ([1]; OVCAR-8, AZI sheet): 25 nM
- GI50 ([1]; PC-3, AZI sheet): 39.6 nM
- GI50 ([1]; RPMI-8226, AZI sheet): 470 nM
- GI50 ([1]; RXF 393, AZI sheet): 41 nM
- GI50 ([1]; SF-268, AZI sheet): 24 nM
- GI50 ([1]; SF-295, AZI sheet): 3 nM
- GI50 ([1]; SF-539, AZI sheet): 51 nM
- GI50 ([1]; SK-MEL-2, AZI sheet): 49 nM
- GI50 ([1]; SK-MEL-5, AZI sheet): 6.3 nM
- GI50 ([1]; SK-MEL-28, AZI sheet): 29 nM
- GI50 ([1]; SK-OV-3, AZI sheet): 8.7 nM
- GI50 ([1]; SN12C, AZI sheet): 65 nM
- GI50 ([1]; SNB-19, AZI sheet): 6.6 nM
- GI50 ([1]; SR, AZI sheet): 7.4 nM
- GI50 ([1]; SW-620, AZI sheet): 46 nM
- GI50 ([1]; T-47D, AZI sheet): 290 nM
- GI50 ([1]; TK-10, AZI sheet): 970 nM
- GI50 ([1]; U251, AZI sheet): 3.6 nM
- GI50 ([1]; UACC-62, AZI sheet): 6.2 nM
- GI50 ([1]; UACC-257, AZI sheet): 92 nM
- GI50 ([1]; UO-31, AZI sheet): 44 nM
- IC50 (A549 cells): 4.1 nM

SMILES: O=C(c1cc2cc(OCCCN3CCC3)ccc2[nH]1)N1CC(CCl)c2c1cc(OC(=O)N1CCCC3COCC31)c1ccccc21 (mixture of isomers) [O56-CBI-AZI]
- IC50 (HeLa-HRE cells; initial screening, A549 and HeLa cell lines): ~300 nM
- IC50(HeLa)/IC50(A549) (HeLa-HRE cells): 1.1
- IC50 (HeLa-HRE cells; [2]): 460 nM
- well-tolerated dose (mouse): 1 mg/kg
- IC50 (A549 cells): 410 nM
